Test results as given in ChEMBL document CHEMBL1157964, “Spasmolytic effects of nonprenylated rotenoid constituents of Boerhaavia diffusa roots” (2006).
The source made the active and inactive calls. The calls are words filed in the database; no cut-off is given here.

What follows are compounds tested on Ileum (assay: Antispasmodic activity in guinea pig ileum assessed as inhibition of acetylcholine-induced contraction at 30 ug/mL). Details: Cavia porcellus.
Assay type: functional
With COc1ccc(Cc2nccc3cc(OC)c(OC)cc23)cc1OC [PAPAVERINE] the Emax at 30 µg/mL was 72.3%. COc1cc2c(c(O)c1C)C(=O)[C@]1(O)c3cccc(O)c3OC[C@H]1O2 was tested, and the Activity was “inactive”. COC1Oc2cc(O)ccc2-c2c1oc1cc(O)c(C)c(O)c1c2=O (stereo not given) was tested, and the Activity was “inactive”. For O=c1c2c(oc3cc(O)cc(O)c13)C(O)Oc1ccccc1-2 (stereo not given), the Activity was “inactive”. COc1cc2oc3c(c(=O)c2c(O)c1C)-c1cccc(O)c1OC3O (stereo not given) [9-O-METHYL-4-HYDROXYBOERAVINONE B] showed an Emax at 30 µg/mL of 100%. Work on COc1cc2oc3c(c(=O)c2c(O)c1O)-c1ccccc1OC3O (stereo not given) [9-O-METHYL-10-HYDROXYCOCCINEONE B] yielded an Emax at 30 µg/mL of 36.1%. For COc1cc2oc3c(c(=O)c2c(O)c1C)-c1cccc(O)c1OC3OC (stereo not given), the Activity was “inactive”. In the case of Cc1c(O)cc2oc3c(c(=O)c2c1O)-c1ccc(O)cc1OC3O (stereo not given) [BOERAVINONE E], the Emax at 30 µg/mL is reported as 100%. Work on COc1cc(O)c2c(=O)c3c(oc2c1)C(OC)Oc1c(O)cccc1-3 (stereo not given) [BOERAVINONE G] yielded an Emax at 30 µg/mL of 60%. With COc1cc2c(c(O)c1OC)C(=O)[C@]1(O)c3ccccc3OC[C@H]1O2 [COCCINEONE E] the Emax at 30 µg/mL was 25.2%. Work on Cc1c(O)cc2oc3c(=O)oc4cc(O)ccc4c3c(=O)c2c1O [BOERAVINONE F] yielded an Emax at 30 µg/mL of 50%. Compound COc1cc(O)c2c(c1)O[C@@H]1COc3c(O)cccc3[C@@]1(O)C2=O has an Emax at 30 µg/mL of 19.4%. COc1ccccc1-c1coc2cc(O)c(C)c(O)c2c1=O gave an Emax at 30 µg/mL of 36.8%.

What follows are compounds tested on Ileum (assay: Antispasmodic activity in guinea pig ileum assessed as inhibition of acetylcholine-induced contraction at 1 uM). Details: not given.
Assay type: functional, Cavia porcellus
Design: scale not given: the % may be the effect or the level left
COC(=O)C1=C(C)NC(C)=C(C(=O)OC)C1c1ccccc1[N+](=O)[O-] [NIFEDIPINE] gave an Activity of 47.3%.

What follows are compounds tested on Ileum (assay: Antispasmodic activity in guinea pig ileum assessed as inhibition of acetylcholine-induced contraction at 10 uM). Details: not given.
Assay type: functional, Cavia porcellus
Design: scale not given: the % may be the effect or the level left
Compound CC(=O)C1=C(O)[C@@H]2[C@H]3c4c[nH]c5cccc(c45)C[C@H]3C(C)(C)N2C1=O [CYCLOPIAZONIC ACID] has an Activity of 52.3%.
